37 compounds from US20160222021A1, “ARYL ETHER-BASE KINASE INHIBITORS” (BRISTOL-MYERS SQUIBB COMPANY, priority 2013, published 2016) can be followed below.

For the experiment, the target named is T1, GST-Xa-hAAK1 (Homo sapiens, UniProt Q2M2I8).
T1 construct: made in house
The experiment in a line: AAK1 Kinase Assay. It is filed as biochemical. To be noted: ATP 22 μM. The protocol: The assays were performed in U-bottom 384-well plates. The final assay volume was 30 μl prepared from 15 μl additions of enzyme and substrates (fluoresceinated peptide (5-FAM)-Aha-[…]-NH2 and ATP) and test compounds in assay buffer (10 mM Tris-HCL pH 7.4, 10 mM MgCl2, 0.01% Tween-20 and 1.0 mM DTT). The reactions were initiated by the combination of bacterially expressed, GST-Xa-hAAK1 with substrates and test compounds. The reactions were incubated at room temperature for 3 hours and terminated by adding 60 μl of 35 mM EDTA buffer to each sample. The reactions were analyzed on the Caliper LabChip 3000 (Caliper, Hopkinton, Mass.) by electrophoretic separation of the fluorescent substrate and phosphorylated product. […] The final concentration of reagents in the assays are ATP, 22 μM; (5-FAM)-Aha-[…]-NH2, 1.5 μM; GST-Xa-hAAK1, 3.5 nM; and DMSO, 1.6%. Dose response curves were generated to determine the concentration required inhibiting 50% of kinase activity (IC50). Compounds were dissolved at 10 mM in dimethylsulfoxide (DMSO) and evaluated at eleven concentrations. IC50 values were derived by non-linear regression analysis.

T1 sequence (Q2M2I8 whole entry): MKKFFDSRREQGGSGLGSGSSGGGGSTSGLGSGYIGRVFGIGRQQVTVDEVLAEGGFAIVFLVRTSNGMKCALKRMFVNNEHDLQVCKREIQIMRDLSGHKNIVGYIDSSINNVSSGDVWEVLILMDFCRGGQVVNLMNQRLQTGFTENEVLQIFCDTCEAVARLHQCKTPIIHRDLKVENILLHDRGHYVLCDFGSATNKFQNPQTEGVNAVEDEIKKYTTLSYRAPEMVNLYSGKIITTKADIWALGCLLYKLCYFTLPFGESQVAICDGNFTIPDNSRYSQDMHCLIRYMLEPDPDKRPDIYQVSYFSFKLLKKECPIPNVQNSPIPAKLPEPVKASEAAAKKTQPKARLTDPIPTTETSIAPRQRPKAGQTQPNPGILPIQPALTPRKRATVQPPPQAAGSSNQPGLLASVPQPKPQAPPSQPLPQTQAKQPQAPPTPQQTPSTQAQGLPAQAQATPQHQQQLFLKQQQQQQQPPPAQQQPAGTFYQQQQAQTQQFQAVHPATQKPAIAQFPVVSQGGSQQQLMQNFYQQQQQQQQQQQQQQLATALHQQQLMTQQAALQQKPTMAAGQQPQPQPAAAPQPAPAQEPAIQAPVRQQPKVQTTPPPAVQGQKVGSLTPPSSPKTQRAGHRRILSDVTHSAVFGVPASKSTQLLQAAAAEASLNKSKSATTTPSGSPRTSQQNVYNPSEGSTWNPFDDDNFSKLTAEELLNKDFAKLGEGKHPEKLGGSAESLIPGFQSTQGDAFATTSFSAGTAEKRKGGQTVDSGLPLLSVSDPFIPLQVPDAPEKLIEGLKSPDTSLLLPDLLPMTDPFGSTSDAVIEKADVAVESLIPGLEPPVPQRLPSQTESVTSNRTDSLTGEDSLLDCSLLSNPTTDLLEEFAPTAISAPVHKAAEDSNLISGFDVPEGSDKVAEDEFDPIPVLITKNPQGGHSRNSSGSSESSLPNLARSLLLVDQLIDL

For orientation: IC50 means the midpoint of a concentration-inhibition curve. With `CC(C)CC(C)(N)COc1ccc2c(c1)OCc1cnc(N)cc1-2` (racemic) [Example 68, 8-((2-amino-2,4-dimethylpentyl)oxy)-5H-chromeno[3,4-c]pyridin-2-amine], the IC50 (IC50 ranges) lay in the range of 1 to 10 nM.
Turning to `COC(=O)Nc1cc2c(cn1)COc1c-2ccc(OCC(C)(N)CC(C)C)c1OC` (racemic) [Example 69, methyl (8-((2-amino-2,4-dimethylpentyl)oxy)-7-methoxy-5H-chromeno[3,4-c]pyridin-2-yl)carbamate], the IC50 (IC50 ranges) is less than 1 nM.
For `[2H]C([2H])(Oc1ccc2c(c1)OCc1cnc(NC(=O)OC)cc1-2)C(C)(N)CC(C)C` (racemic) [Example 75, methyl (8-((2-amino-1,1-deutero-2,4-dimethylpentyl)oxy)-5H-chromeno[3,4-c]pyridin-2-yl)carbamate], the 50% inhibitory concentration (IC50) (numeric values) came to 2.3 nM.
In the case of `[2H]C([2H])(Oc1ccc2c(c1)OCc1cnc(NC(C)=O)cc1-2)C(C)(N)CC(C)C` (racemic) [Example 78, N-(8-((2-amino-1,1-deutero-2,4-dimethylpentyl)oxy)-5H-chromeno[3,4-c]pyridin-2-yl)acetamide], the IC50 (IC50 ranges) was 1 to 10 nM.
Same read-out and setting: then `COC(=O)Nc1cc2c(cn1)COc1c-2ccc(OCC(C)(N)CC(C)C)c1C#N` (racemic) [Example 79, methyl (8-((2-amino-2,4-dimethylpentyl)oxy)-7-cyano-5H-chromeno[3,4-c]pyridin-2-yl)carbamate], with less than 1 nM.
`[2H]C([2H])(Oc1ccc2c(c1C#N)OCc1cnc(NC(=O)OC)cc1-2)C(C)(N)CC(C)C` (racemic) [Example 94, methyl (8-((2-amino-1,1-deutero-2,4-dimethylpentyl)oxy)-7-cyano-5H-chromeno[3,4-c]pyridin-2-yl)carbamate]: the IC50 (IC50 ranges) was less than 1 nM.
On the same count and under the same terms, then `[2H]C([2H])(Oc1ccc2c(c1)OCc1cnc(NC(=O)OCC)cc1-2)C(C)(N)CC(C)C` (racemic) [Example 96, ethyl (8-((2-amino-1,1-deutero-2,4-dimethylpentyl)oxy)-5H-chromeno[3,4-c]pyridin-2-yl)carbamate], with 1 to 10 nM.
Same read-out and setting: the result for `CC(C)C[C@H](N)COc1ccc2c(c1)OC(C1CC1)c1cnccc1-2` (single isomer, unassigned) [Example 8a] reads 100 to 1200 nM.
As for `CC(C)C[C@@H](N)COc1ccc2c(c1)OC(C1CC1)c1cnccc1-2` (single isomer, unassigned) [Example 9a], the IC50 (IC50 ranges) fell in the range of 100 to 1200 nM.
Still for that read-out and setting: the result for `CC(C)C[C@@H](N)COc1ccc2c(c1)OC(C1CC1)c1cnccc1-2` (single isomer, unassigned) [Example 9b] reads 100 to 1200 nM; that for `CC(C)C[C@H](N)COc1cc2c(cc1Cl)-c1ccncc1[C@H](C(F)(F)F)O2` (single isomer, unassigned) [Example 27a], 1 to 10 nM.
On the same count and under the same terms, then `CC(C)C[C@H](N)COc1ccc2c(c1)OC(C(F)(F)F)c1cnccc1-2` (single isomer, unassigned; diastereomer 2) [Example 53], with 10 to 100 nM; and `N[C@@H](COc1ccc2c(c1)OCc1cnccc1-2)Cc1ccccc1` [Example 2, (R)-1-(5H-chromeno[3,4-c]pyridin-8-yloxy)-3-phenylpropan-2-amine], with 100 to 1200 nM.
Same read-out and setting: the result for `CC[C@@H](N)COc1ccc2c(c1)OCc1cnccc1-2` [Example 3, (R)-1-(5H-chromeno[3,4-c]pyridin-8-yloxy)butan-2-amine] reads 100 to 1200 nM.
With `CC(C)C[C@@H](N)COc1ccc2c(c1)OC(C1CC1)c1cnccc1-2` (stereo partly shown) [Example 9], the IC50 (IC50 ranges) fell in the range of 100 to 1200 nM.
The same measure, in the same setting: the result for `CC(C)C[C@H](N)COc1ccc2c(c1)OC1(COC1)c1cnccc1-2` [Example 19, (S)-4-methyl-1-(spiro[chromeno[3,4-c]pyridine-5,3′-oxetan]-8-yloxy)pentan-2-amine] reads 100 to 1200 nM; that for `CC(C)C[C@H](N)COc1cc2oc(=O)c3cnccc3c2cc1Br` [Example 25, (S)-8-(2-amino-4-methylpentyloxy)-9-bromo-5H-chromeno[3,4-c]pyridin-5-one], 1 to 10 nM.
In the case of `Cc1cc2c(cn1)COc1cc(OC[C@@H](N)CC(C)C)ccc1-2` [Example 39, (S)-4-methyl-1-((2-methyl-5H-chromeno[3,4-c]pyridin-8-yl)oxy)pentan-2-amine], the IC50 (IC50 ranges) lay within 100 to 1200 nM.
In the case of `CC(=O)Nc1cc2c(cn1)COc1cc(OC[C@@](C)(N)CC(C)C)ccc1-2` [Example 45, (S)—N-(8-((2-amino-2,4-dimethylpentyl)oxy)-5H-chromeno[3,4-c]pyridin-2-yl)acetamide], the IC50 (numeric values) worked out at 0.87 nM.
For the compound `CC(=O)Nc1nccc2c1C(C)Oc1cc(OC[C@@H](N)CC(C)C)ccc1-2` (stereo partly drawn) [Example 47, N-(8-(((S)-2-amino-4-methylpentyl)oxy)-5-methyl-5H-chromeno[3,4-c]pyridin-4-yl)acetamide], under “IC50 ranges”, the IC50 was in the range of 100 to 1200 nM.
Regarding `CC(=O)Nc1nccc2c1C(C1CC1)Oc1cc(OC[C@@H](N)CC(C)C)ccc1-2` (stereo partly drawn) [Example 48, N-(8-(((S)-2-amino-4-methylpentyl)oxy)-5-cyclopropyl-5H-chromeno[3,4-c]pyridin-4-yl)acetamide], the IC50 (numeric values) was found to be 1200 nM.
Regarding `CC(C)C[C@H](N)COc1ccc2c(c1)OC(C(F)(F)F)c1cnccc1-2` (stereo partly drawn) [Example 49, (2S)-4-methyl-1-((5-(trifluoromethyl)-5H-chromeno[3,4-c]pyridin-8-yl)oxy)pentan-2-amine], under “IC50 ranges”, the IC50 lay in the range of 10 to 100 nM.
Take `CC(C)C[C@H](N)COc1ccc2c(c1)OC(C1CC1)c1c-2ccnc1N` (stereo partly drawn) [Example 50, 8-(((S)-2-amino-4-methylpentyl)oxy)-5-cyclopropyl-5H-chromeno[3,4-c]pyridin-4-amine]: the IC50 (numeric values) was determined as 12 nM.
Take `CC(C)C[C@H](N)COc1ccc2c(c1)OC(C(C)C)c1cnccc1-2` (stereo partly drawn) [Example 51, (2S)-1-((5-isopropyl-5H-chromeno[3,4-c]pyridin-8-yl)oxy)-4-methylpentan-2-amine]: the IC50 (IC50 ranges) fell in the range of 10 to 100 nM.
On to `CNc1nccc2c1COc1cc(OC[C@@H](N)CC(C)C)ccc1-2` [Example 54, (S)-8-((2-amino-4-methylpentyl)oxy)-N-methyl-5H-chromeno[3,4-c]pyridin-4-amine], for which the IC50 (numeric values) came out at 305 nM.
Regarding `CC(C)C[C@H](N)COc1ccc2c(c1)OC(C(C)C)c1cnccc1-2` (stereo partly drawn) [Example 55, (2S)-1-((5-isopropyl-5H-chromeno[3,4-c]pyridin-8-yl)oxy)-4-methylpentan-2-amine], where the note is “IC50 ranges”, the IC50 is 10 to 100 nM.
As to `CC1Oc2cc(OC[C@@H](N)CC3CC3)ccc2-c2ccncc21` (stereo partly drawn) [Example 56, (2S)-1-cyclopropyl-3-((5-methyl-5H-chromeno[3,4-c]pyridin-8-yl)oxy)propan-2-amine], the IC50 (numeric values) was found to be 21 nM.
`CCNc1cc2c(cn1)COc1cc(OC[C@@H](N)CC(C)C)ccc1-2` [Example 58, (S)-8-((2-amino-4-methylpentyl)oxy)-N-ethyl-5H-chromeno[3,4-c]pyridin-2-amine]: the IC50 (IC50 ranges) fell in the range of 10 to 100 nM.
Same read-out and setting: the result for `CC(C)C[C@H](N)COc1ccc2c(c1)OCc1cnc(NC(=O)C(C)C)cc1-2` [Example 61, (S)—N-(8-((2-amino-4-methylpentyl)oxy)-5H-chromeno[3,4-c]pyridin-2-yl)isobutyramide] reads 10 to 100 nM; that for `CC(=O)Nc1cc2c(cn1)COc1cc(OC[C@@H](N)CC(C)C)cc(F)c1-2` [Example 62, (S)—N-(8-((2-amino-4-methylpentyl)oxy)-10-fluoro-5H-chromeno[3,4-c]pyridin-2-yl)acetamide], 1 to 10 nM; that for `CC(C)C[C@H](N)COc1cc2c(cc1Cl)-c1cc(N)ncc1CO2` [Example 71, (S)-8-((2-amino-4-methylpentyl)oxy)-9-chloro-5H-chromeno[3,4-c]pyridin-2-amine], 1 to 10 nM.
Consider `CC(C)C[C@H](N)COc1ccc2c(c1)OCc1cnc(NC(=O)c3cc(F)cc(F)c3)cc1-2` [Example 72, (S)—N-(8-((2-amino-4-methylpentyl)oxy)-5H-chromeno[3,4-c]pyridin-2-yl)-3,5-difluorobenzamide], for which the IC50 (IC50 ranges) was in the range of 100 to 1200 nM.
Still for that read-out and setting: the result for `COC(=O)Nc1cc2c(cn1)COc1c-2ccc(OC[C@@](C)(N)CC(C)C)c1C#N` [Example 80, (S)-methyl (8-((2-amino-2,4-dimethylpentyl)oxy)-7-cyano-5H-chromeno[3,4-c]pyridin-2-yl)carbamate] reads less than 1 nM; that for `COC(=O)Nc1cc2c(cn1)COc1cc(OC[C@@](C)(N)CC(C)C)c(Cl)cc1-2` [Example 83, (S)-methyl (8-((2-amino-2,4-dimethylpentyl)oxy)-9-chloro-5H-chromeno[3,4-c]pyridin-2-yl)carbamate], 1 to 10 nM.
Take `COC(=O)Nc1cc2c(cn1)COc1c-2ccc(OC[C@@H](N)CC(C)C)c1C#N` [Example 84, (S)-methyl (8-((2-amino-4-methylpentyl)oxy)-7-cyano-5H-chromeno[3,4-c]pyridin-2-yl)carbamate]: the IC50 (IC50 ranges) lay in the range of 1 to 10 nM.
On the same count and under the same terms, then `COc1c(OC[C@@](C)(N)CC(C)C)ccc2c1OCc1cnc(NC(C)=O)cc1-2` [Example 85, (S)—N-(8-((2-amino-2,4-dimethylpentyl)oxy)-7-methoxy-5H-chromeno[3,4-c]pyridin-2-yl)acetamide], with less than 1 nM.
Consider `COC(=O)Nc1cc2c(cn1)COc1c-2ccc(OC[C@@](C)(N)CC(C)C)c1OC` [Example 86, (S)-methyl (8-((2-amino-2,4-dimethylpentyl)oxy)-7-methoxy-5H-chromeno[3,4-c]pyridin-2-yl)carbamate], for which the IC50 (numeric values) worked out at 0.39 nM.
